From PMC10818600, “In Silico Design, Synthesis, and Evaluation of Novel Enantiopure Isoxazolidines as Promising Dual Inhibitors of α-Amylase and α-Glucosidase” (Molecules, 2024)
Several values for one entry are separate records, joined by “and”; a condition that tells them apart may be missing. Equal values may be shown once.

Columns and labels:
Format in all cases: biochemical
[1] = target: human lysosomal acid-α-glucosidase (Homo sapiens, UniProt P10253); test: α-glucosidase inhibition assay; details: for IC50: mean ± standard error, triplicates
Protocol: (§1) The inhibitory potential of the synthesized analogs against human pancreatic α-amylase and human lysosomal acid-α-glucosidase enzymes was carried out using the same protocol as described previously with slight modification. […] The percent of inhibition for both enzymes was calculated via the following formula: % inhibition=Abs(blank)−Abs(test compoud)/Abs (blank)×100
(§2) The results were expressed as IC50 (μM), and all the experiments were carried out in triplicates.

α-glucosidase = α-glucosidase (Homo sapiens, UniProt P10253); test: enzyme kinetic study, mode of α-glucosidase inhibition (Lineweaver–Burk)
Protocol: (§3) The kinetic studies were carried out based on the above IC50 values. […] A volume of 20 μL was incubated for 15 min at 30 °C using varying concentrations of the inhibitor 5d against α-amylase (0, 5, 25, and 35 μM) and α-glucosidase ([…]) with varying concentrations of inhibitor substrate (starch) in the range 0.3 to 8 mM, whereas concentrations for the inhibitor substrate (p-nitrophenyl-α-D-glucopyranoside, PNPg) were in the range 0.1–1.3 mM, respectively. This was conducted according to the same protocol as previously described, with slight modifications. The type of enzyme inhibition was assessed by preparing Lineweaver–Burk plots of the inverse of the velocities (1/V) versus the inverse of the substrate’s concentration 1/[S] mM^−1, and the change in absorbance was measured spectrophotometrically at 405 nm. The constant of inhibition, Ki, was determined through the secondary plot of the slope versus the inhibitor concentration.

α-amylase = target: T1, α-amylase (Homo sapiens, UniProt P04746); test: enzyme kinetic study, mode of α-amylase inhibition (Lineweaver–Burk)
T1 sequence (P04746 16-511): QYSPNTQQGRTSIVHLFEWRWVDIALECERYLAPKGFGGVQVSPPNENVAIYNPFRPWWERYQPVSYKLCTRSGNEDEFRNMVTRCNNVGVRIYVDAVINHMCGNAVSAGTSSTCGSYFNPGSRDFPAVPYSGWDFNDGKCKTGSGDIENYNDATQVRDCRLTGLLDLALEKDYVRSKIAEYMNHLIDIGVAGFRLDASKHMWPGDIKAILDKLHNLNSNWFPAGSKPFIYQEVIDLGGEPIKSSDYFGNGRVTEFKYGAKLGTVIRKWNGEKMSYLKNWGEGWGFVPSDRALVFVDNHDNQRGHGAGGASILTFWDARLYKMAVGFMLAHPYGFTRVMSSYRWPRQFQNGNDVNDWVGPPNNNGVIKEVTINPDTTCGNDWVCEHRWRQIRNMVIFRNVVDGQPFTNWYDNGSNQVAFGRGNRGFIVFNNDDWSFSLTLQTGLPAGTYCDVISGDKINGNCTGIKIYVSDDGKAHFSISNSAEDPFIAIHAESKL
Protocol: as §3

[2] = target: T2, human pancreatic α-amylase (Homo sapiens, UniProt P04746); test: α-amylase inhibition assay; details: for IC50: mean ± standard error, triplicates
T2 sequence (P04746 16-511): T1 sequence (P04746 16-511)
Protocol: as §1, §2

[3] = ratio of IC50 values vs acarbose

| Compound | IC50 [1] [µM] | α-glucosidase inhibitory activity, fold higher than that of acarbose [1, 3] | mode of α-glucosidase inhibition (α-glucosidase; Lineweaver–Burk plot: Km increases, Vmax constant) | Ki (α-glucosidase; estimated from slope vs inhibitor concentration, substrate PNPg, read-out: inhibition constant Ki, α-glucosidase) [µM] | mode of α-amylase inhibition (α-amylase; Lineweaver–Burk plot: Vmax unchanged, Km increased) | Ki (α-amylase; estimated from secondary re-plot of Lineweaver–Burk plots, substrate starch, read-out: inhibition constant Ki, α-amylase) [µM] | IC50 [2] [µM] | α-amylase inhibitory activity, fold higher than that of acarbose [2, 3] |
| --- | --- | --- | --- | --- | --- | --- | --- | --- |
| Cc1cccc(C[C@@H]2C[C@@H]3C(=O)N(C)C4(C[C@H](C)CC[C@H]4C(C)C)N3O2)c1OCC(=O)NNC(=O)Nc1cccc2ccccc12 (stereo partly drawn) [5d, 2-(2-(2-(((2S,2′R,3a’R,5R)-2-isopropyl-5,5′-dimethyl-4′-oxotetrahydro-2′H-spiro[cyclohexane-1,6′-imidazo[1,5-b]isoxazol]-2′-yl)methyl)-6-methylphenoxy)acetyl)-N-(naphthalen-1-yl)hydrazine-1-carboxamide] | 94.33 ± 0.282 | 8.3 fold and 8.27 fold | competitive | 89.5 | competitive | 31.9 | 53.03 ± 0.106 | 5.6 fold and 5.59 fold |
| COc1cc(C[C@@H]2C[C@@H]3C(=O)N(C)C4(C[C@H](C)CC[C@H]4C(C)C)N3O2)ccc1OCC(=O)NNC(=O)Nc1ccc(Br)cc1 (stereo partly drawn) [5f, N-(4-bromophenyl)-2-(2-(4-(((2S,2′R, 3a’R, 5R)-2-isopropyl-5,5′-dimethyl-4′-oxotetrahydro-2′H-spiro[cyclohexane-1,6′-imidazo[1,5-b]isoxazol]-2′-yl)methyl)-2-methoxyphenoxy)acetyl)hydrazine-1-carboxamide] | 204.6 ± 0.41 |  |  |  |  |  | 183.8 ± 0.498 |  |
| Cc1cccc(C[C@@H]2C[C@@H]3C(=O)N(C)C4(C[C@H](C)CC[C@H]4C(C)C)N3O2)c1OCC(=O)NNC(=O)Nc1cccc(Cl)c1 (stereo partly drawn) [5c, N-(3-chlorophenyl)-2-(2-(2-(((2S,2′R,3a’R,5R)-2-isopropyl-5,5′-dimethyl-4′-oxotetrahydro-2′H-spiro[cyclohexane-1,6′-imidazo[1,5-b]isoxazol]-2′-yl)methyl)-6-methylphenoxy)acetyl)hydrazine-1-carboxamide] | 120.9 ± 0.333 |  |  |  |  |  | 92.28 ± 0.276 |  |
| Cc1cccc(C[C@@H]2C[C@@H]3C(=O)N(C)C4(C[C@H](C)CC[C@H]4C(C)C)N3O2)c1OCC(=O)NNC(=O)Nc1ccc(Cl)c(C(F)(F)F)c1 (stereo partly drawn) [5b, N-(3-trifluoromethyl-4-chlorophenyl)-2-(2-(2-(((2S,2′R,3a’R,5R)-2-isopropyl-5,5′-dimethyl-4′-oxotetrahydro-2′H-spiro[cyclohexane-1,6′-imidazo[1,5-b]isoxazol]-2′-yl)methyl)-6-methylphenoxy)acetyl)hydrazine-1-carboxamide] | 118.9 ± 0.325 |  |  |  |  |  | 67.4 ± 0.202 |  |
| Cc1cccc(C[C@@H]2C[C@@H]3C(=O)N(C)C4(C[C@H](C)CC[C@H]4C(C)C)N3O2)c1OCC(=O)NNC(=O)Nc1ccc(Cl)cc1 (stereo partly drawn) [5e, N-(4-chlorophenyl)-2-(2-(2-(((2S,2′R,3a’R,5R)-2-isopropyl-5,5′-dimethyl-4′-oxotetrahydro-2′H-spiro[cyclohexane-1,6′-imidazo[1,5-b]isoxazol]-2′-yl)methyl)-6-methylphenoxy)acetyl)hydrazine-1-carboxamide] | 258.7 ± 0.521 |  |  |  |  |  | 232.8 ± 0.517 |  |
| Cc1cccc(C[C@@H]2C[C@@H]3C(=O)N(C)C4(C[C@H](C)CC[C@H]4C(C)C)N3O2)c1OCC(=O)NNC(=O)Nc1ccc(F)cc1 (stereo partly drawn) [5a, N-(4-fluorophenyl)-2-(2-(2-(((2S,2′R,3a’R,5R)-2-isopropyl-5,5′-dimethyl-4′-oxotetrahydro-2′H-spiro[cyclohexane-1,6′-imidazo[1,5-b]isoxazol]-2′-yl)methyl)-6-methylphenoxy)acetyl)hydrazine-1-carboxamide] | 152.3 ± 0.367 |  |  |  |  |  | 120.3 ± 0.306 |  |
| COc1cc(C[C@@H]2C[C@@H]3C(=O)N(C)C4(C[C@H](C)CC[C@H]4C(C)C)N3O2)ccc1OCC(=O)NNC(=O)Nc1ccc(F)cc1 (stereo partly drawn) [5g, N-(4-fluorophenyl)-2-(2-(4-(((2S,2′R,3a’R,5R)-2-isopropyl-5,5′-dimethyl-4′-oxotetrahydro-2′H-spiro [cyclohexane-1,6′-imidazo[1,5-b]isoxazol]-2′-yl)methyl)-2-methoxyphenoxy)acetyl)hydrazine-1-carboxamide] | 170.8 ± 0.358 |  |  |  |  |  | 134.8 ± 0.411 |  |
